Common to all, as to assay type: functional
The subject of experiment [1] is Candida albicans. The experiment is described as follows: Antimicrobial activity against Candida albicans grown as planktonic cell by broth microdilution method. On the technique in general: In broth dilution the organism is exposed to a series of concentrations in liquid medium.
In experiment [2] the test system is Candida albicans. The experiment is described as follows: Antimicrobial activity against Candida albicans grown as planktonic cell after 24 hrs by broth microdilution method.
Experiment [3] has as its system Candida albicans. The experiment is described as follows: Antimicrobial activity against Candida albicans grown as planktonic cell after 48 hrs by broth microdilution method.
Experiment [4] concerns Candida albicans. The experiment is described as follows: Antimicrobial activity against Candida albicans GDH2346 grown as sessile cell after 48 hrs by broth microdilution method. Conditions: GDH2346, 48 h.
Experiment [5] relates to Candida albicans. The experiment is described as follows: Antimicrobial activity against Candida albicans grown as sessile cell after 48 hrs by broth microdilution method.

The structures appear in SMILES notation. Converted amounts (≈) assume the structure as drawn. Numbered stars: 1 amine (or outer) side, 2 acyl side, 3 side chain; on linkers, the order of the positions; unused ones are H or OH. Bridge positions count the residues as written; N and C are the ends. Square brackets hold non-standard residues; d marks the D form. Peptide text beside a SMILES is read from it. * marks the point of attachment. pTerphenylCO(4''-OnC5H11) = CCCCCOc1ccc(-c2ccc(-c3ccc(C(=O)*)cc3)cc2)cc1; Orn(4R-OH,5R-OH) = O=C([C@H](C[C@@H](O)[C@@H](O)N[*:3])N[*:1])[*:2]; hTyr(3S-OH,4S-OH) = N[C@H](C(=O)O)[C@H](O)[C@@H](O)c1ccc(O)cc1; Pro(3S-OH,4S-Me) = C[C@H]1CN[C@H](C(=O)O)[C@H]1O; Hyp = O=C(O)[C@@H]1C[C@@H](O)CN1

Broadly, the MIC90 is the lowest concentration that inhibits either 90% of growth or 90% of the strains tested, depending on the study. The low end stands for higher susceptibility, the high end for lower susceptibility. In the experiment on Candida albicans [1], `C[C@@H](c1ncncc1F)[C@](O)(Cn1cncn1)c1ccc(F)cc1F` [VORICONAZOLE] came in with an MIC90 above 0.06 µg/mL.

Consider `CC[C@H](C)C[C@H](C)CCCCCCCCC(=O)N[C@H]1C[C@@H](O)[C@@H](NCCN)NC(=O)[C@@H]2[C@@H](O)CCN2C(=O)[C@H]([C@H](O)CCN)NC(=O)[C@H]([C@H](O)[C@@H](O)c2ccc(O)cc2)NC(=O)[C@@H]2C[C@@H](O)CN2C(=O)[C@H]([C@@H](C)O)NC1=O` [CASPOFUNGIN], for which the MIC90 against Candida albicans [1] turned out to be 0.5 µg/mL (≈ 0.457 µM).

As for `C[C@@H]1[C@H](O)[C@@H](C)/C=C/C=C/C=C/C=C/C=C/C=C/C=C/[C@H](O[C@@H]2O[C@H](C)[C@@H](O)[C@H](N)[C@@H]2O)C[C@@H]2O[C@](O)(C[C@@H](O)C[C@@H](O)[C@H](O)CC[C@@H](O)C[C@@H](O)CC(=O)O[C@H]1C)C[C@H](O)[C@H]2C(=O)O` [AMPHOTERICIN B], the MIC90 in the experiment on Candida albicans [1] was 0.25 µg/mL (≈ 0.271 µM).

As a reminder, the MIC is the lowest concentration that inhibits growth of the organism. In general, MIC50 refers to an inhibitory concentration at the 50% level, which refers to growth in some studies and to a panel of isolates in others. A high value points to weaker potency. Take `CCCCCOc1ccc(-c2ccc(-c3ccc(C(=O)N[C@H]4C[C@@H](O)[C@@H](O)NC(=O)[C@@H]5[C@@H](O)[C@@H](C)CN5C(=O)[C@H]([C@@H](C)O)NC(=O)[C@H]([C@H](O)[C@@H](O)c5ccc(O)cc5)NC(=O)[C@@H]5C[C@@H](O)CN5C(=O)[C@H]([C@@H](C)O)NC4=O)cc3)cc2)cc1` [ANIDULAFUNGIN] ({pTerphenylCO(4''-OnC5H11)}-[Orn(4R-OH,5R-OH)]T[Hyp][hTyr(3S-OH,4S-OH)]T[Pro(3S-OH,4S-Me)]; lactam 1-C): the MIC in the experiment with Candida albicans [2] was 0.125 µg/mL (≈ 0.11 µM); against Candida albicans [3] it was at most 0.5 µg/mL; against Candida albicans [4], at most 0.03 µg/mL; in the experiment on Candida albicans [1], at most 0.03 µg/mL; against Candida albicans [5] it was above 0.03 µg/mL. For the same molecule, the MIC50 in the experiment with Candida albicans [1] was at most 0.03 µg/mL. Further, the MIC90 with Candida albicans [1] amounted to 0.125 µg/mL (≈ 0.11 µM).

Values taken from ChEMBL document CHEMBL1275424, “In vitro activity of anidulafungin against Candida albicans biofilms” (2008).
